Patent publication US20070208067A1, “Tablet Formulations and Processes” (Wyeth, priority 2006, published 2007)

Columns and labels:
[1] = Stability studies of the two crystal forms (XRPD, TGA, HPLC); format: physicochemical; details: for Chemical stability (HPLC) / Crystal form transformation (XRPD and TGA): 40° C./75% RH (monohydrate also 40° C. without humidity control)
Method: […] At room temperature, humidity was maintained at 0% RH. Humidity was not controlled for the higher temperatures.
The samples were analyzed by XRPD and TGA.
Non-micronized samples of monohydrate and anhydrate were stored at 40° C./75% RH for three months. The monohydrate was also stored at 40° C. without humidity control. During the three months, the samples were checked after two weeks, one month, two months, and three months.

[2] = Dynamic vapor sorption (hygroscopicity) of the two crystal forms; format: physicochemical; details: for DVS weight gain: 0–90% RH; for Hygroscopicity (DVS): result in words
From the text: Dynamic Vapor Sorption (Allentown, Pa.) was used to measure the hygroscopicity of the anhydrate and monohydrate of the invention (see FIGS. 6 and 7). The step conditions were three hours each at 0%, 30%, 52.5%, 75% and 90% RH, two full cycles.

Row | SMILES | Solid-state stability (XRPD and TGA) ([1]; 56° C., humidity not controlled, one week) | Solid-state stability (XRPD and TGA) ([1]; 70° C., humidity not controlled, 1 day) | Solid-state stability (XRPD and TGA) ([1]; 70° C., humidity not controlled, 4 days) | Solid-state stability (XRPD and TGA) ([1]; 70° C., humidity not controlled, 7 days) | Solid-state stability (XRPD) ([1]; 70° C., one hour) | Solid-state stability (XRPD) ([1]; 90° C., one half hour) | Solid-state stability (XRPD) ([1]; 90° C., one hour) | Chemical stability (HPLC) ([1]; non-micronized, three months) | Crystal form transformation (XRPD and TGA) ([1]; non-micronized, three months) | Solid-state stability (XRPD and TGA) ([1]; room temperature, 0% RH, one week) | DVS weight gain [2] | Hygroscopicity (DVS) [2] | Crystal form transformation (XRPD) ([1]; micronized, 25° C./60% RH, three months) | Crystal form transformation (XRPD) ([1]; micronized, 40° C./75% RH, one month) | Crystal form transformation (XRPD) ([1]; non-micronized, 40° C./75% RH, separate study)
1 | C=Cc1cc(O)cc2nc(-c3ccc(O)c(F)c3)oc12 [Monohydrate, 2-(3-fluoro-4-hydroxyphenyl)-7-vinyl-1,3-benzoxazol-5-ol] | no obvious dehydration | no obvious hydration | partially dehydrated | mostly dehydrated | stable | partially dehydrated | completely dehydrated | chemically stable | did not transform | no obvious dehydration | 0.1% gain (0–90% RH) | largely non-hygroscopic |  |  | 
2 | C=Cc1cc(O)cc2nc(-c3ccc(O)c(F)c3)oc12 [Anhydrate, 2-(3-fluoro-4-hydroxyphenyl)-7-vinyl-1,3-benzoxazol-5-ol] |  |  |  |  |  |  |  | chemically stable | did not transform |  | 0.2% gain (0–90% RH) | largely non-hygroscopic | did not transform to the monohydrate | partially transform to the monohydrate | did not show any obvious transformation
